According to paper PMC11111691, “Cystine-knot peptide inhibitors of HTRA1 bind to a cryptic pocket within the active site region” (Nature Communications, 2024):
“Also recorded” adds a separate entry of the source. Positions of bridges follow the written chain, without caps; N, C: chain ends. Residues, ends and D or L forms follow the SMILES beside them. No end group written: not given here.

What was measured:
HTRA1^FL = molecular target: T1, HTRA1^FL (Homo sapiens, UniProt Q92743); test: HTRA1^FL enzyme inhibition assay with synthetic substrate H2-OPT; format: biochemical
T1 construct: Human full-length HTRA1 (HTRA1^FL, Q23-P480); made in house; host or cells: Trichoplusia ni cells
T1 sequence (Q92743 23-480): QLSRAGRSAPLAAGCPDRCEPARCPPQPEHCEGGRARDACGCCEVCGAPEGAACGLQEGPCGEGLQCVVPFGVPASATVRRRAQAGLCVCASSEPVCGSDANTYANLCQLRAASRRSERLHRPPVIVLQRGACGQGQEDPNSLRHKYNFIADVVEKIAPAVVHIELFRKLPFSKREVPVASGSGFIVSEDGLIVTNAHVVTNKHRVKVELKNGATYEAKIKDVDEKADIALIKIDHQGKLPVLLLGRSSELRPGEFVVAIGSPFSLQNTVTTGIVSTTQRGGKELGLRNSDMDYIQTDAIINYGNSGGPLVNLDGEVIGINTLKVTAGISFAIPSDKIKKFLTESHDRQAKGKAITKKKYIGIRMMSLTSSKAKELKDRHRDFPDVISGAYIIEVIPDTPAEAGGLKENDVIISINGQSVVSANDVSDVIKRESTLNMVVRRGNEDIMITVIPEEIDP
Protocol: (§1) Assays with the fluorescence-quenched synthetic substrate Mca-IRRVSYSFK(Dnp)K (H2-OPT)[38],[60] were carried out essentially as described. CKP stock solutions in DMSO were diluted in TNC buffer (dilution series for IC50 determinations, or final concentration of 2 µM for selectivity assay or as indicated for HTRA1/4 mutants) and incubated with enzymes in 96-well black optical bottom plates for 60 min at 37 °C. For selectivity experiments we used the 7mer-ABP as inhibitor, which was incubated with the proteases for 15 min at 37 °C. A 10 mM stock solution of H2-OPT in DMSO was diluted with water, prewarmed at 37 °C and then added to the CKP-enzyme mixtures. The final concentrations in the reaction mixtures were: 1 nM HTRA1^FL, 3 nM HTRA1^PD/PDZ, 1 nM HTRA1^PD, 1 nM HTRA2^PD/PDZ, 3 nM HTRA3^FL, 60 nM HTRA3^PD/PDZ, 6 nM HTRA4^FL, 1 µM HTRA4^PD/PDZ, 1 nM mouse HTRA1^PD, 25 nM HTRA1^PD-A202Y, 1 µM HTRA4^PD/PDZ-Y200A, 0.5 mM 7mer-ABP, 5 µM H2-OPT, and 0.25% DMSO. The kinetics of substrate cleavage was measured at 37 °C on a SpectraMax M5 microplate reader with excitation of 328 nm and emission of 393 nm. The determined initial rates of cleavage were expressed as percent of control (DMSO control) after subtracting the baseline rates (without enzyme). IC50 values were determined by Sigmoidal 4PL modeling of multiple data points from serial dilutions of CKPs using Prism 9 software (GraphPad). For selectivity assays with HTRA1-4^PD/PDZ constructs, the specific activities of the enzymes and enzyme:CKP inhibitor ratios were as follows: HTRA1^PD/PDZ, 12560 mRFU/min/nM – 1:667; HTRA2^PD/PDZ, 32300 mRFU/min/nM – 1:2000; HTRA3^PD/PDZ, 962 mRFU/min/nM – 1:33; HTRA4^PD/PDZ, 18 mRFU/min/nM – 1:2.

HTRA1^PD(SA) = molecular target: T2, HTRA1^PD(SA) (Homo sapiens, UniProt Q92743, S328A); test: SPR binding kinetics to HTRA1^PD(SA); conditions: mean ± S.D. of three or more independent experiments
T2 construct: The protease domains of human HTRA1 (HTRA1^PD; D161-K379); made in house; host or cells: E. coli
T2 sequence (Q92743 161-379 S328A): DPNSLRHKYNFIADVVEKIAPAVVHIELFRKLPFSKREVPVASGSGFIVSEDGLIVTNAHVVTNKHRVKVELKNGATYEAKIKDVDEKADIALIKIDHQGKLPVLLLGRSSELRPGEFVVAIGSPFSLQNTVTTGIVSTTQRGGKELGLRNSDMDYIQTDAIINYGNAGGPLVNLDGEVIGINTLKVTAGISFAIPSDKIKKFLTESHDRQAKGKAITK
Protocol: Surface plasmon resonance (SPR) experiments were performed using a Biacore S200 instrument at 25 °C. His-tagged HTRA proteins were captured on a CM5 sensor chip using the His-capture kit (GE Healthcare). Protein concentrations used for immobilization were as follows; HTRA1^PD(SA), HTRA1^PD and HTRA1^PD-ABP 2 µg/ml with 60-s injections at 10 µl/min, HTRA2^PD/PDZ, HTRA3^PD/PDZ, and HTRA4^PD/PDZ 4 µg/ml with 60-s injections at 10 µl/min. Approximate immobilization levels of HTRA proteins were as follows; HTRA1^PD(SA) 700 RU, HTRA1^PD 900 RU, HTRA1^PD-ABP 900 RU, HTRA2^PD/PDZ 500 RU, HTRA3^PD/PDZ 500 RU, HTRA4^PD/PDZ 500 RU. All CKPs were prepared in HBS-EP buffer (0.01 M HEPES pH 7.4, 0.15 M NaCl, 3 mM EDTA, 0.005% v/v Surfactant P20). All CKP concentrations were injected for 120 s at a flow rate of 30 μl/min. A reference channel was subtracted from the HTRA-captured channel.
Binding kinetics of peptides to HTRA1^PD(SA) were determined by flowing six serial three-fold dilutions of peptide over the HTRA1^PD(SA) immobilized surface using a single cycle kinetics model. CKP maximum concentrations were as follows: 1A7, 1A8, 1C10, 2D5, and 3A7, 300 nM; 1G10-ENI and 1D3-ENI, 100 nM; 3B3, 3000 nM; and CPI, 10,000 nM. Data were analyzed using GE BIA evaluation software using a 1:1 Langmuir binding model. The KD values, calculated from the determined kon and koff values, were the mean ± S.D. of 3–4 independent experiments.

HTRA4^PD/PDZ, HTRA4^FL = molecular target: T3, HTRA4^PD/PDZ, HTRA4^FL (Homo sapiens, UniProt P83105); test: H2-OPT selectivity assay, HTRA4; format: biochemical; conditions: 6 nM HTRA4^FL, 2 µM CKP; p<0.001 vs DMSO
T3 construct: purchased Abcam (FL form); the PD/PDZ form was made in house in E. coli ab134444
T3 sequence (P83105 32-476): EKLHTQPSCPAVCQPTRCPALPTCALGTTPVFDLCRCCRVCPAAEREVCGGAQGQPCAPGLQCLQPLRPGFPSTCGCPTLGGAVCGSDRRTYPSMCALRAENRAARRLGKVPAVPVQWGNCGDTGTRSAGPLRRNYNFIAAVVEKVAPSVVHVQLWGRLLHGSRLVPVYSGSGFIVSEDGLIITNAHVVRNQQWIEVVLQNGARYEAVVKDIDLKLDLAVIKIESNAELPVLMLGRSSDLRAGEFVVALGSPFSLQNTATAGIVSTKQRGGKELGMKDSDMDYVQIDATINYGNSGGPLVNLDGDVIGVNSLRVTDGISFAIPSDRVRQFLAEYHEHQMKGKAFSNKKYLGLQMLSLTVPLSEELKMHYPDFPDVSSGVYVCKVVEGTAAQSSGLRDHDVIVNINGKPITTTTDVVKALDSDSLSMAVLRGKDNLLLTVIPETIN
Protocol: as §1

CKP stability assay = format: physicochemical; conditions: chemical stability, PBS containing 0.15% DMSO, 0.3 mM (~1 mg/ml), 37 °C, LC-MS, HPLC UV 220 nm peak area normalized to DMSO peak, two independent experiments, preliminary
Protocol: The CKPs 1G10 and 1G10-ENI were incubated in PBS containing 0.15% DMSO at a concentration of 0.3 mM (~1 mg/ml) at 37 °C for 30 days. Samples from two independently performed experiments were frozen at −20 °C until further analysis. Thawed samples were diluted in H2O and injected into LC-MS (Agilent). From the HPLC UV trace (at 220 nm) the CKP peak area was normalized to the DMSO peak area from the same run. The values obtained from multiple HPLC runs were averaged and shown as dot plot.

[1] = SPR Biacore S200, 25 °C, single cycle kinetics, 1:1 Langmuir model
[2] = SPR, calculated from kon and koff, CPI up to 10 µM

**Q.** For `CC[C@H](C)[C@H](NC(=O)[C@H](CCC(N)=O)NC(=O)[C@H](CCCNC(=N)N)NC(=O)[C@H](CC(C)C)NC(=O)CNC(=O)[C@H](Cc1c[nH]c2ccccc12)NC(=O)CNC(=O)[C@@H]1CSSC[C@@H]2NC(=O)[C@H](CC(=O)O)NC(=O)[C@H](CC(=O)O)NC(=O)[C@H](Cc3c[nH]cn3)NC(=O)[C@H]([C@@H](C)O)NC(=O)[C@H](CCCCN)NC(=O)[C@@H]3CSSC[C@H](NC(=O)[C@H]([C@@H](C)O)NC(=O)[C@H](CCC(N)=O)NC(=O)[C@H](CSSC[C@H](NC(=O)[C@@H](NC(=O)[C@@H]4CCCN4C(=O)[C@H](CC(=O)O)NC(=O)[C@H](C)NC(=O)[C@@H](N)Cc4c[nH]cn4)[C@@H](C)CC)C(=O)N[C@@H](CC(N)=O)C(=O)N[C@@H](CCCCN)C(=O)N4CCC[C@H]4C(=O)N3)NC(=O)[C@H](Cc3ccccc3)NC(=O)[C@H](Cc3c[nH]c4ccccc34)NC(=O)[C@H](C)NC(=O)CNC(=O)[C@H](CO)NC2=O)C(=O)N[C@@H](Cc2ccc(O)cc2)C(=O)N[C@@H](Cc2ccc(O)cc2)C(=O)N[C@@H](C)C(=O)N[C@@H]([C@@H](C)O)C(=O)N[C@@H](Cc2c[nH]c3ccccc23)C(=O)N[C@@H](CO)C(=O)N1)C(=O)N[C@@H](CC(=O)O)C(N)=O` [1A8] (H-HADPICNKPCKTHDDCSGAWFCQTCYYATWSCGWGLRQID-NH2; disulfide 6-22, 10-25, 16-32), which IC50 (HTRA1^FL) is on record?
**A.** 1.9 ± 0.15 nM

**Q.** What about the koff (HTRA1^PD(SA); [1]) of the same compound?
**A.** 0.5 ± 0.1 s-1 x10-4

**Q.** What about the kon (HTRA1^PD(SA); [1]) of the same compound?
**A.** 8.2 ± 3.5 M-1 s-1 x104

**Q.** What about the Kd (HTRA1^PD(SA); [2]) of the same compound?
**A.** 0.66 ± 0.42 nM

**Q.** And the “Reduction of HTRA4^FL activity, H2-OPT” value (HTRA4^PD/PDZ, HTRA4^FL)?
**A.** 13%

**Q.** With `CC[C@H](C)[C@H](NC(=O)[C@@H]1CCCN1C(=O)[C@H](CC(=O)O)NC(=O)[C@H](C)NC(=O)[C@@H](N)Cc1c[nH]cn1)C(=O)N[C@H]1CSSC[C@@H]2NC(=O)[C@H](Cc3ccccc3)NC(=O)[C@H](Cc3c[nH]c4ccccc34)NC(=O)[C@H](C)NC(=O)CNC(=O)[C@H](CO)NC(=O)[C@@H]3CSSC[C@@H](C(=O)NCC(=O)N4CCC[C@H]4C(=O)N[C@@H](Cc4ccc(O)cc4)C(=O)N[C@H](C(=O)NCC(N)=O)C(C)C)NC(=O)[C@H]([C@@H](C)O)NC(=O)[C@H](CCCNC(=N)N)NC(=O)[C@H](C)NC(=O)[C@H](CO)NC(=O)[C@H](CC(N)=O)NC(=O)[C@H](Cc4c[nH]c5ccccc45)NC(=O)[C@H](CSSC[C@H](NC(=O)[C@@H]4CCCN4C(=O)[C@H](CCCCN)NC(=O)[C@H](CC(N)=O)NC1=O)C(=O)N[C@@H](CCCCN)C(=O)N[C@@H]([C@@H](C)O)C(=O)N[C@@H](Cc1c[nH]cn1)C(=O)N[C@@H](CC(=O)O)C(=O)N[C@@H](CC(=O)O)C(=O)N3)NC(=O)[C@H](C)NC(=O)[C@H](CCC(N)=O)NC2=O` [CPI, reference compound] (H-HADPICNKPCKTHDDCSGAWFCQACWNSARTCGPYVG-NH2; disulfide 6-22, 10-25, 16-32) as the compound, how does the “Inhibition of HTRA1^FL activity (inhibition curves)” value (HTRA1^FL; H2-OPT substrate, Fig. 1b) read?
**A.** no activity

**Q.** And the KD (HTRA1^PD(SA); [2])?
**A.** No binding

**Q.** With “YPVDPICNKPCKTHDDCSGAWFCQTCYYATWSCGWGLRQID-NH2 (disulfide 7-23, 11-26, 17-33) [1G10]” as the compound, how does the “Stability: intact peptide after 30 days” value (CKP stability assay) read?
**A.** no change in peptide mass at 30 days; also recorded: highly stable

**Q.** With `CC[C@H](C)[C@H](NC(=O)[C@H](CCC(N)=O)NC(=O)[C@H](CCCNC(=N)N)NC(=O)[C@H](CC(C)C)NC(=O)CNC(=O)[C@H](Cc1c[nH]c2ccccc12)NC(=O)CNC(=O)[C@@H]1CSSC[C@@H]2NC(=O)[C@H](CC(=O)O)NC(=O)[C@H](CC(=O)O)NC(=O)[C@H](Cc3c[nH]cn3)NC(=O)[C@H]([C@@H](C)O)NC(=O)[C@H](CCCCN)NC(=O)[C@@H]3CSSC[C@H](NC(=O)[C@H]([C@@H](C)O)NC(=O)[C@H](CCC(N)=O)NC(=O)[C@H](CSSC[C@H](NC(=O)[C@@H](NC(=O)[C@@H]4CCCN4C(=O)[C@H](CC(=O)O)NC(=O)[C@H](C)NC(=O)[C@@H](N)Cc4c[nH]cn4)[C@@H](C)CC)C(=O)N[C@@H](CC(N)=O)C(=O)N[C@@H](CCCCN)C(=O)N4CCC[C@H]4C(=O)N3)NC(=O)[C@H](Cc3ccccc3)NC(=O)[C@H](Cc3c[nH]c4ccccc34)NC(=O)[C@H](C)NC(=O)CNC(=O)[C@H](CO)NC2=O)C(=O)N[C@@H](Cc2ccc(O)cc2)C(=O)N[C@@H](CC(C)C)C(=O)N[C@@H](C)C(=O)N[C@@H]([C@@H](C)O)C(=O)N[C@@H](Cc2c[nH]c3ccccc23)C(=O)N[C@@H](CO)C(=O)N1)C(=O)N[C@@H](CC(=O)O)C(N)=O` [Y27L] (H-HADPICNKPCKTHDDCSGAWFCQTCYLATWSCGWGLRQID-NH2; disulfide 6-22, 10-25, 16-32) as the compound, how does the IC50 (HTRA1^FL) read?
**A.** 49.9 ± 3.8 nM

**Q.** Which IC50 (HTRA1^FL) does the source give for `CC[C@H](C)[C@H](NC(=O)[C@H](CCC(N)=O)NC(=O)[C@H](CCCNC(=N)N)NC(=O)[C@H](CC(C)C)NC(=O)CNC(=O)[C@H](Cc1c[nH]c2ccccc12)NC(=O)CNC(=O)[C@@H]1CSSC[C@@H]2NC(=O)[C@H](CC(=O)O)NC(=O)[C@H](CC(=O)O)NC(=O)[C@H](Cc3c[nH]cn3)NC(=O)[C@H]([C@@H](C)O)NC(=O)[C@H](CCC(=O)O)NC(=O)[C@@H]3CSSC[C@H](NC(=O)[C@H]([C@@H](C)O)NC(=O)[C@H](CCC(N)=O)NC(=O)[C@H](CSSC[C@H](NC(=O)[C@@H](NC(=O)[C@@H]4CCCN4C(=O)[C@H](CC(=O)O)NC(=O)[C@H](C)NC(=O)[C@@H](N)Cc4c[nH]cn4)[C@@H](C)CC)C(=O)N[C@@H](CC(N)=O)C(=O)N[C@@H](CCCCN)C(=O)N4CCC[C@H]4C(=O)N3)NC(=O)[C@H](Cc3ccccc3)NC(=O)[C@H](Cc3c[nH]c4ccccc34)NC(=O)[C@H](C)NC(=O)CNC(=O)[C@H](CO)NC2=O)C(=O)N[C@@H](Cc2ccc(O)cc2)C(=O)N[C@@H](Cc2ccc(O)cc2)C(=O)N[C@@H](C)C(=O)N[C@@H]([C@@H](C)O)C(=O)N[C@@H](Cc2c[nH]c3ccccc23)C(=O)N[C@@H](CO)C(=O)N1)C(=O)N[C@@H](CC(=O)O)C(N)=O` [1A8.K11E] (H-HADPICNKPCETHDDCSGAWFCQTCYYATWSCGWGLRQID-NH2; disulfide 6-22, 10-25, 16-32) here?
**A.** 1 ± 0.3 nM
